Experimental findings from patent US8030499B2, “1,3-dihydro-2H-indole-2-one compound and pyrrolidine-2-one compound fused with aromatic heterocycle” (Taisho Pharmaceutical Co., Ltd., priority 2005, dated 2011) are described below.

This assay concerns the target T1, human V1b receptor (Homo sapiens, UniProt P47901).
T1 construct: expressed in transfected cells; host or cells: CHO cells
T1 sequence (P47901 1-424): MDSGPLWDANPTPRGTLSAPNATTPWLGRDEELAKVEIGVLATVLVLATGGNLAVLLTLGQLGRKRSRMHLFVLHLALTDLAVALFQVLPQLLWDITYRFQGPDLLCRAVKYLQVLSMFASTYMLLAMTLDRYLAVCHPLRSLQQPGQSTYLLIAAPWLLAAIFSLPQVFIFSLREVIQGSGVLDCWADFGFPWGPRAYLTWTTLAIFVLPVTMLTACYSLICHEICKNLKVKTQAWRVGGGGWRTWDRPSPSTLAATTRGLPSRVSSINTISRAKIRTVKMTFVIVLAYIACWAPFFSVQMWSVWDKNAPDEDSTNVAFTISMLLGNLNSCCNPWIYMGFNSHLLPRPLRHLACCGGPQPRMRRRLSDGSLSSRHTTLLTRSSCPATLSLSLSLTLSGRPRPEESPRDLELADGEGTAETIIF
The assay can be described thus: V1b receptor binding assay ([3H](Arg8)-vasopressin, crude membranes of CHO cells). The note with it: 0.1 μmol/L test drug, V1b receptor binding assay; read-out: Rate of inhibition (V1b: % of inhibition). On the procedure:
A summary of the methods is given below.
Each obtained homogenate was centrifuged for 20 minutes at 50,000×g and 4° C., the sediment was resuspended in a 50 mmol/L Tris hydrochloric acid buffer solution (pH7.4, containing 10 mmol/L magnesium chloride and 0.1% bovine serum albumin), which served as a crude membrane preparation. This crude membrane preparation was added with [^3H] (Arg^8) vasopressin (final concentration: 0.1 nmol/L to 0.4 nmol/L), and each test drug (final concentration: 0.1 nmol/L to lμmol/L or 0.01 nmol/L to 0.1 μmol/L) to 22° C. for 90 minutes. After the end of the reaction, the reaction solution was filtrated using a GF/C glass fiber filter, which had been presoaked in 0.3% polyethyleneimine for two hours. After the GF/C glass fiber filter was dried sufficiently, scintillator was added, and the radioactivity on the filter was measured using a liquid scintillation counter. Binding of [^3H] (Arg^8)-vasopressin in the presence of (Arg^8)-vasopressin, in the amounts of 0.1 μmol/L in the V1b receptor binding assay and 5 μmol/L in the V1a and V2 receptor binding assay, were taken as non-specific binding, and the value obtained by subtracting non-specific binding from the total binding in the absence (Arg^8)-vasopressin served as specific binding.
In addition, regarding the V1b receptor binding assay, the value obtained by, subtracting the amount of binding in the presence of 0.1 μmol/L test drug from the total amount of binding, divided by the amount of specific binding, served as the rate of inhibition (% of inhibition) of the test drug at the concentration tested.

Take `COC(=O)[C@H](C)OC1(c2ccccc2OC)C(=O)N(S(=O)(=O)c2ccc(OC)cc2OC(F)(F)F)c2ccc(Cl)cc21` (stereo partly drawn) [Example 80, Methyl (2S)-2-[(5-chloro-3-(2-methoxyphenyl)-1-{[4-methoxy-2-(trifluoromethoxy)phenyl]sulfonyl}-2-oxo-2,3-dihydro-1H-indol-3-yl)oxy]propanoate]: the inhibition at 0.1 µM turned out to be 69%.
In the case of `COc1ccc(S(=O)(=O)N2C(=O)C(c3cccc4c3OCC4)(N3CCCC[C@H]3C(=O)N(C)C)c3cc(Cl)ccc32)c(OC(F)(F)F)c1` (stereo partly drawn) [Example 90, (2S)-1-(5-chloro-3-(2,3-dihydro-1-benzofuran-7-yl)-1-{[4-methoxy-2-(trifluoromethoxy)phenyl]sulfonyl}-2-oxo-2,3-dihydro-1H-indol-3-yl)-N,N-dimethylpiperidine-2-carboxamide] it was 97%; in that of `COc1ccc(S(=O)(=O)N2C(=O)C(N[C@@H](Cc3ccncc3)C(=O)N(C)C)(c3ccccc3OC)c3cc(Cl)ccc32)c(OC(F)(F)F)c1` (single isomer, unassigned) [Example 83], 72%; in that of `COc1ccc(S(=O)(=O)N2C(=O)C(c3cc(CN4CCN(C(=O)OC(C)(C)C)CC4)ccc3OC)(N3C[C@H](O)C[C@H]3C(=O)N(C)C)c3cc(Cl)ccc32)c(OC(F)(F)F)c1` (single isomer, unassigned) [Example 201], 53%.
In the case of `COc1ccc(S(=O)(=O)N2C(=O)C(c3cc(C)ccc3OC)(N3C[C@H](OCCCN4CCN(C)CC4)C[C@H]3C(=O)N(C)C)c3cc(Cl)ccc32)c(OC(F)(F)F)c1` (stereo partly drawn) [Example 154, (4R)-1-(5-chloro-3-(2-methoxy-5-methylphenyl)-1-{[4-methoxy-2-(trifluoromethoxy)phenyl]sulfonyl}-2-oxo-2,3-dihydro-1H-indol-3-yl)-N,N-dimethyl-4-[3-(4-methylpiperazin-1-yl)propoxy]-L-prolinamide] it was 100%; in that of `COc1ccc(S(=O)(=O)N2C(=O)C(N[C@@H](Cc3ccc(O)cc3)C(=O)N(C)C)(c3ccccc3OC)c3cc(Cl)ccc32)c(OC(F)(F)F)c1` (single isomer, unassigned) [Example 86], 86%; in that of `COc1ccc(S(=O)(=O)N2C(=O)C(c3cc(C)ccc3OC)(N3C[C@H](O)C[C@H]3C(=O)N(C)C)c3cc(Cl)ccc32)c(OCC(F)(F)F)c1` (single isomer, unassigned) [Example 171], 95%.
Consider `COc1ccc(S(=O)(=O)N2C(=O)C(c3cc(C)ccc3OC)(N3C[C@H](O)C[C@H]3C(=O)N(CCO)CCO)c3cc(Cl)ccc32)c(OC(F)(F)F)c1` (stereo partly drawn) [Example 161, (4R)-1-(5-chloro-3-(2-methoxy-5-methylphenyl)-1-{[4-methoxy-2-(trifluoromethoxy)phenyl]sulfonyl}-2-oxo-2,3-dihydro-1H-indol-3-yl)-4-hydroxy-N,N-bis(2-hydroxyethyl)-L-prolinamide], for which the inhibition at 0.1 µM came out at 78%.
With `COc1ccc(C)cc1C1(N2C[C@H](O)C[C@H]2C(=O)N(C)C)C(=O)N(S(=O)(=O)c2ccc(OC)c(OC)c2OC)c2ccc(Cl)cc21` (single isomer, unassigned) [Example 176], the inhibition at 0.1 µM is 97%.
As to `COC(=O)[C@@H]1C[C@@H](O)CN1C1(c2ccccc2OC)C(=O)N(S(=O)(=O)c2ccc(OC)cc2OC(F)(F)F)c2ccc(Cl)cc21` (single isomer, unassigned) [Example 4], the inhibition at 0.1 µM amounted to 102%.
Take `COc1ccc(S(=O)(=O)N2C(=O)C(c3ccccc3OC)(N3C[C@H](F)C[C@H]3C(=O)N(C)C)c3cc(Cl)ccc32)c(OC(F)(F)F)c1` (single isomer, unassigned) [Example 7]: the inhibition at 0.1 µM is 96%.
`COc1ccc(S(=O)(=O)N2C(=O)C(c3cc(CN4CCCC4)ccc3OC)(N3C[C@H](O)C[C@H]3C(=O)N(C)C)c3cc(Cl)ccc32)c(OC(F)(F)F)c1` (single isomer, unassigned) [Example 199]: the inhibition at 0.1 µM amounted to 98%.
Regarding `COC(=O)[C@@H]1C[C@@H](O)CN1C1(c2cc(C)ccc2OC)C(=O)N(S(=O)(=O)c2ccc(OC)cc2OC(F)(F)F)c2ccc(Cl)cc21` (single isomer, unassigned) [Example 135], the inhibition at 0.1 µM came out at 92%.
Consider `COc1ccc(S(=O)(=O)N2C(=O)C(c3cc(OC)ccc3OC)(N3C[C@H](O)C[C@H]3C(=O)N(C)C)c3cc(Cl)ccc32)c(OC(F)(F)F)c1` (single isomer, unassigned) [Example 102], for which the inhibition at 0.1 µM turned out to be 102%.
For the molecule `COc1ccc(S(=O)(=O)N2C(=O)C(c3cc(N(C)C)ccc3OC)(N3C[C@H](O)C[C@H]3C(=O)N(C)C)c3cc(Cl)ccc32)c(OC(F)(F)F)c1` (single isomer, unassigned) [Example 190], the inhibition at 0.1 µM worked out at 93%.
Turning to `COc1ccc(S(=O)(=O)N2C(=O)C(c3cc(C)ccc3OC)(N3C[C@H](OCCCO)C[C@H]3C(=O)N(C)C)c3cc(Cl)ccc32)c(OC(F)(F)F)c1` (stereo partly drawn) [Example 139, (4R)-1-(5-chloro-3-(2-methoxy-5-methylphenyl)-1-{[4-methoxy-2-(trifluoromethoxy)phenyl]sulfonyl}-2-oxo-2,3-dihydro-1H-indol-3-yl)-4-(3-hydroxypropoxy)-N,N-dimethyl-L-prolinamide], the inhibition at 0.1 µM was determined as 103%.
In the case of `COc1ccc(S(=O)(=O)N2C(=O)C(c3ccccc3OC)(N3c4ccccc4C[C@H]3C(=O)N(C)C)c3cc(Cl)ccc32)c(OC(F)(F)F)c1` (stereo partly drawn) [Example 40, (2S)-5′-chloro-3′-(2-methoxyphenyl)-1′-{[4-methoxy-2-(trifluoromethoxy)phenyl]sulfonyl}-N,N-dimethyl-2′-oxo-2,2′,3,3′-tetrahydro-1′H-1,3′-biindole-2-carboxamide], the inhibition at 0.1 µM was 66%.
In the case of `COc1ccc(S(=O)(=O)N2C(=O)C(c3cccc4c3OCO4)(N3C[C@H](O)C[C@H]3C(=O)N(C)C)c3cc(C)ccc32)c(OC(F)(F)F)c1` (single isomer, unassigned) [Example 107] it was 102%; in that of `COc1ccc(S(=O)(=O)N2C(=O)C(c3cc(CCN(C)C)ccc3OC)(N3C[C@H](O)C[C@H]3C(=O)N(C)C)c3cc(Cl)ccc32)c(OC(F)(F)F)c1` (stereo partly drawn) [Example 221, (4R)-1-(5-chloro-3-{5-[2-(dimethylamino)ethyl]-2-methoxyphenyl}-1-{[4-methoxy-2-(trifluoromethoxy)phenyl]sulfonyl}-2-oxo-2,3-dihydro-1H-indol-3-yl)-4-hydroxy-N,N-dimethyl-L-prolinamide], 102%.
Then `COc1ccc(S(=O)(=O)N2C(=O)C(c3cc(C)ccc3OC)(N3C[C@H](OCC(=O)O)C[C@H]3C(=O)N(C)C)c3cc(Cl)ccc32)c(OC(F)(F)F)c1` (stereo partly drawn) [Example 148, ({(3R,5S)-1-(5-chloro-3-(2-methoxy-5-methylphenyl)-1-{[4-methoxy-2-(trifluoromethoxy)phenyl]sulfonyl}-2-oxo-2,3-dihydro-1H-indol-3-yl)-5-[(dimethylamino)carbonyl]pyrrolidin-3-yl}oxy)acetic acid], with 85%; and `C=Cc1ccccc1C1(N2C[C@H](O)C[C@H]2C(=O)N(C)C)C(=O)N(S(=O)(=O)c2ccc(OC)cc2OC(F)(F)F)c2ccc(Cl)cc21` (single isomer, unassigned) [Example 104], with 94%.
With `COc1ccc(S(=O)(=O)N2C(=O)C(c3cc(C(C)C)ccc3OC)(N3C[C@H](O)C[C@H]3C(=O)N(C)C)c3cc(Cl)ccc32)c(OC(F)(F)F)c1` (single isomer, unassigned) [Example 230], the inhibition at 0.1 µM amounted to 101%.
